# Test results taken from patent US20230056994A1, “NECROPTOSIS MODULATORS, SCREENING METHODS AND PHARMACEUTICAL COMPOSITIONS” (NEURALIS SA, priority 2019, published 2023).
# Entries after “also recorded” stand apart in the source; their conditions may differ.
# What was measured:
# [1] = test system: phosphorylation state of MLKL in MCF7 cells; assay: Western blot of phospho-MLKL (Ser358) in MCF7 cells, necroptosis induced by TNF-alpha and z-VAD-fmk; format: cell-based; details: then TNF a 10 ng/ml 20 hrs, z-VAD-fmk 10 μM, One-Way ANOVA
# Procedure: (§1) MCF7 and HT29 cells were cultured in DMEM along with 10% FBS, 1% Penicillin-Streptomycin and 1% Glutamine. The cells were pre-treated with 0.1% DMSO or z-VAD-fmk (10 μM) to induce necroptosis (positive control). In order to evaluate the effect of candidate agents on the induced necroptosis, Necrostatin 1 (Nec-1 (10 μM)) or Estetrol (E4 (10^-7 M) was added to the cells for 1 hr and was further subjected to Tumor Necrosis Factor (TNF) a (10 ng/ml) treatment for 20 hrs. The cells were then washed, followed by isolation and quantification of the total protein. 20 μg of protein from each treatment group was used for SDS-PAGE separation (10% […] gel) and was then transferred to PVDF membrane via a transfer apparatus. Post transfer, the membranes were blocked with 5% milk and further washed with the wash buffer. The membranes were further incubated with anti-Phospho-MLKL (Ser358) Polyclonal Antibody; Cat No: PA5-105678 (Thermofisher Scientific) at a dilution of 1/1000. The membranes were then incubated with secondary antibody (anti-Rabbit IgG, HRP-linked antibody, Cell signaling, Cat No: 7074S) at a dilution of 1/1000 and visualized using Western Blot substrate (Western Lightning Plus-ECL, Perkin Elmer, NEL104001EA) as per manufacturer's protocols. The results are shown in FIGS. 6 and 7, respectively for MCF7 and HT29 cells.
# [2] = test system: phosphorylation state of MLKL in HT29 cells; assay: Western blot of phospho-MLKL (Ser358) in HT29 cells, necroptosis induced by TNF-alpha and z-VAD-fmk; format: cell-based; details: then TNF a 10 ng/ml 20 hrs, z-VAD-fmk 10 μM, One-Way ANOVA
# Procedure: as §1
# [3] = E4 10^-7 M for 1 hr, listed as E4
# [4] = Nec-1 10 μM for 1 hr, listed as Nec 1
# [5] = Nec-1 10 μM for 1 hr, listed as Necrostatin 1
SMILES,reduction of MLKL phosphorylation versus TNF-alpha + z-VAD-fmk induced cells ([1]; E4 10^-7 M for 1 hr),"reduction of MLKL phosphorylation versus TNF-alpha + z-VAD-fmk induced cells [1, 3]",reduction of MLKL phosphorylation versus TNF-alpha + z-VAD-fmk induced cells ([2]; E4 10^-7 M for 1 hr),"reduction of MLKL phosphorylation versus TNF-alpha + z-VAD-fmk induced cells [2, 3]","reduction of MLKL phosphorylation versus TNF-alpha + z-VAD-fmk induced cells [1, 4]","reduction of MLKL phosphorylation versus TNF-alpha + z-VAD-fmk induced cells [1, 5]","reduction of MLKL phosphorylation versus TNF-alpha + z-VAD-fmk induced cells [2, 4]","reduction of MLKL phosphorylation versus TNF-alpha + z-VAD-fmk induced cells [2, 5]"
C[C@]12CC[C@@H]3c4ccc(O)cc4CC[C@H]3[C@@H]1[C@@H](O)[C@@H](O)[C@@H]2O [Estetrol],decrease of phosphorylation of MLKL,statistically relevant (**p<0.01),decrease of phosphorylation of MLKL,statistically relevant (**p<0.01),,,,
"CN1C(=O)C(Cc2c[nH]c3ccccc23)NC1=S (centres unmarked) [Nec-1, Necrostatin-1]",,,,,statistically significant (*p<0.05); also recorded: statistically relevant (*p<0.05),decrease of phosphorylation of MLKL,statistically Non-Significant (NS),decrease of phosphorylation of MLKL
